pIC50: −log10 of the molar value.
Assays:
[1] = Cytotoxicity against mouse BA/F3 cells expressing EGFR L858R mutant; assay type: functional, cell-based; conditions: BaF3
[2] = Cytotoxicity against mouse BA/F3 cells expressing EGFR L858R/T790M mutant; assay type: functional, cell-based; conditions: BaF3

SMILES	pIC50 [1]	pIC50 [2]
C#Cc1cccc(Nc2ncnc3cc(OCCOC)c(OCCOC)cc23)c1 [ERLOTINIB]	7.90	–
CCOc1cc2ncc(C#N)c(Nc3ccc(OCc4ccccn4)c(Cl)c3)c2cc1NC(=O)/C=C/CN(C)C [NERATINIB]	8.46	6.74
